Laboratory results taken from paper PMC10470178, “Long-acting lenacapavir protects macaques against intravenous challenge with simian-tropic HIV” (eBioMedicine, 2023).
Like-named read-outs stand apart in the source and are kept apart here.

Tests used:
HIV-1 = system: HIV-1; design: method as in PMID 32612233; settings: people with HIV-1, monotherapy, 450 mg, after 9 days of treatment; cited from earlier work
[1] = Pharmacokinetics of subcutaneous LEN in pigtail macaques; assay type: in vivo, pigtail macaques (Macaca nemestrina); settings: for range of peak plasma LEN concentration after second dose / mean peak plasma LEN concentration after first dose / range of peak plasma LEN concentration after first dose: N = 3; for time mean plasma drug concentrations above the PA-EC95: two doses 6 weeks apart; for half-life: sc
Procedure: Sixteen male, purpose-bred pigtail macaques (Macaca nemestrina; ages 4.6–8.5 years at the time of study initiation) were housed at NIH-Bethesda (Supplementary Table S1). All study animals received enrofloxacin (10 mg/kg, administered orally, once per day for 10 days), paromomycin (25 mg/kg, administered orally, twice daily for 7–10 days), and fenbendazole (50 mg/kg administered orally, once per day for 5 days) two weeks to 43 months prior to study initiation. Lenacapavir or drug vehicle (sterile, preservative-free 57.5% w/v polyethylene glycol 300 in water) doses were administered to sedated animals via SC injection into the scapular region such that no more than 2 ml of solution was injected into a single SC site. Animals in the LEN pharmacokinetic evaluation study (N = 6) each received two doses of LEN, both at 15 mg/kg (N = 3) or at 50 mg/kg (N = 3), 6 weeks apart. Animals in the virus challenge experiment each received a single dose of LEN at 25 mg/kg (N = 3, LEN PrEP group) or drug vehicle (N = 4, vehicle control group) 30 days prior to stHIV-A19 challenge, or a cART regimen consisting of tenofovir disoproxil fumarate (TDF), emtricitabine (FTC), and dolutegravir (DTG) (N = 3, TDF/FTC/DTG group), coformulated and administered as previously described[29]^,[30] for 7 days beginning 3 days prior to stHIV-A19 challenge (Supplementary Figure S1). Hair was clipped and skin marked at LEN and vehicle injection sites to allow for subsequent visual and manual assessment and scoring of potential ISRs by non-blinded veterinary care staff. Complete blood counts (CBC) and serum chemistries were monitored prior to and at 2- to 4-week intervals after LEN administration for at least one year. Following the first dose of LEN in the PK study, one animal in the 50-mg/kg dosing group received 7 consecutive days of daily ketoprofen (2 mg/kg) administered intramuscularly for ISR analgesia at veterinary discretion. For the second dose of LEN in the PK study, all animals in the 50-mg/kg dosing group received 5–7 consecutive days of twice daily oral carprofen (2 mg/kg) analgesia administered prophylactically starting on the day of LEN dosing. In the IV challenge PrEP study, all LEN and vehicle control animals received 3–5 consecutive days of twice daily oral carprofen (2 mg/kg) analgesia administered prophylactically starting on the day of injection. For virus challenge, PrEP study animals each received 1 × 10^5 infectious units of stHIV-A19 injected intravenously. After LEN washout, LEN PrEP group animals received a single 50-mg/kg dose of rhesusized depleting anti-CD8α antibody (MT807R1, RRID: AB_2716320, NIH Nonhuman Primate Reagent Resource), administered SC to anesthetized animals.
Whole blood was collected in EDTA Vacutainer Tubes (BD) from sedated animals. Plasma for vRNA quantification, LEN concentration determination, and HIV-1 Western blot analysis was separated from whole blood and clarified by centrifugation, and then stored at −80 °C. Following plasma separation, the blood cellular component was resuspended in an equivalent volume of PBS and then PBMCs were isolated by Ficoll-Paque Plus (GE Healthcare) gradient centrifugation. Portions of isolated PBMC samples were cryopreserved as dry cell pellets for CA-vDNA quantification.
Pigtail macaque plasma samples stored frozen at −80 °C were thawed, and a 50 μl aliquot of each was treated with 200 μl acetonitrile containing a generic internal small-molecule standard. After precipitation of the protein component, a 150 μl aliquot of the supernatant was transferred to a clean 96-well plate and evaporated to dryness under a nitrogen stream. The samples were reconstituted with 100 μL of 50% acetonitrile and then injected into an API-6500+ QTRAP triple quadrupole mass spectrometer (SciEx) with electrospray ionization in positive mode. […]

[2] = Equilibrium dialysis shift assay in PTM plasma; assay type: in vitro ADME, pigtail macaque; settings: competitive equilibrium dialysis, LEN 2 μM in 10% PTM plasma, 4 donors, 24 h, 37 °C
Procedure: The protein shift ratio for LEN in PTM plasma was determined by competitive equilibrium dialysis. Lenacapavir (2 μM) was spiked into 10% PTM plasma from each of 4 individual donors (3 males and 1 female) and then placed in triplicate into one side of assembled dialysis cells (Harvard Apparatus), followed by the addition of RPMI cell culture medium containing 10% foetal bovine serum to the opposite side of each cell. After a 24-h equilibration period at 37 °C, plasma and cell culture medium samples were collected and individually mixed 1:1 with the reciprocal blank matrix. Samples were then deproteinated following the addition of acetonitrile (1:4 ratio, respectively) containing 50 ng/ml warfarin and 50 ng/ml ritonavir as an internal standard and analysed using a liquid chromatography with tandem mass spectrometry (LC-MS/MS) method utilizing a SciEx API 4000 triple quadrupole mass spectrometer equipped with a Shimadzu Nexera UPLC system. The mean plasma protein binding-adjusted shift for LEN in 100% PTM plasma obtained from 4 independent experiments, each using a single PTM plasma donor performed in triplicate, was then calculated using a non-linear equation.

[3] = 15 mg/kg SC on Study Day 0 and 42, PTM, N = 3, mean ± SD
[4] = 25 mg/kg single SC dose on Study Day 0, PTM, N = 3, mean ± SD
[5] = 25 mg/kg single SC dose, all three animals
[6] = 50 mg/kg SC on Study Day 0 and 42, PTM, N = 3, mean ± SD

**Q.** For `CC(C)(C#Cc1ccc(-c2ccc(Cl)c3c(NS(C)(=O)=O)nn(CC(F)(F)F)c23)c([C@H](Cc2cc(F)cc(F)c2)NC(=O)Cn2nc(C(F)(F)F)c3c2C(F)(F)[C@@H]2C[C@H]32)n1)S(C)(=O)=O` [LEN, Lenacapavir], which “maximum reductions in plasma viral loads” value (HIV-1) is on record?
**A.** > 100 fold

**Q.** And the “range of peak plasma LEN concentration after second dose” value ([1]; 15 mg/kg SC on Study Day 0 and 42, PTM)?
**A.** 57 to 77 nM

**Q.** And the AUCinf [1, 3]?
**A.** 80.9 ± 2.5 μM∗h

**Q.** And the AUClast [1, 3]?
**A.** 80.7 ± 2.5 μM∗h

**Q.** What about the Cmax ([1]; 15 mg/kg SC on Study Day 0 and 42, PTM, N = 3, mean ± SD, read-out: Cmax (mean peak plasma concentration after second dose)) of the same molecule?
**A.** 67.8 ± 10.1 nM

**Q.** What about the “mean peak plasma LEN concentration after first dose” value ([1]; 15 mg/kg SC, PTM) of the same molecule?
**A.** 16 nM

**Q.** What about the “range of peak plasma LEN concentration after first dose” value ([1]; 15 mg/kg SC, PTM) of the same molecule?
**A.** 10 to 28 nM

**Q.** What about the “time mean plasma drug concentrations above the PA-EC95” value ([1]; 15 mg/kg SC, PTM) of the same molecule?
**A.** > 189 days

**Q.** What about the AUCinf [1, 4] of the same molecule?
**A.** 92.0 ± 17.8 μM∗h

**Q.** What about the AUClast [1, 4] of the same molecule?
**A.** 91.3 ± 17.8 μM∗h

**Q.** And the “plasma LEN concentration at time of stHIV-A19 challenge relative to PA-EC95” value ([1]; 25 mg/kg single SC dose, 30 days after dosing, all 3 animals)?
**A.** > 5 fold

**Q.** And the “plasma LEN at 419 days post-challenge” value ([1]; 25 mg/kg single SC dose, LEN PrEP animals)?
**A.** no longer detected in plasma

**Q.** What about the “time plasma LEN concentrations remaining above the PA-EC95” value [1, 5] of the same molecule?
**A.** > 200 days

**Q.** What about the “time plasma LEN remaining above the lower limit of quantitation (LLOQ, 0.1 nM)” value [1, 5] of the same molecule?
**A.** more than one year

**Q.** And the “range of peak plasma LEN concentration after second dose” value ([1]; 50 mg/kg SC on Study Day 0 and 42, PTM)?
**A.** 234 to 350 nM

**Q.** And the AUCinf [1, 6]?
**A.** 408 ± 106 μM∗h

**Q.** What about the AUClast [1, 6] of the same molecule?
**A.** 408 ± 106 μM∗h

**Q.** And the “mean peak plasma LEN concentration after first dose” value ([1]; 50 mg/kg SC, PTM)?
**A.** 95 nM

**Q.** And the “range of peak plasma LEN concentration after first dose” value ([1]; 50 mg/kg SC, PTM)?
**A.** 48 to 120 nM

**Q.** And the “time mean plasma drug concentrations above the PA-EC95” value ([1]; 50 mg/kg SC, PTM)?
**A.** > 245 days

**Q.** What about the half-life ([1]; male, monkey, in vivo, 15 mg/kg, 15 mg/kg SC on Study Day 0 and 42, PTM, N = 3, mean ± SD, read-out: t1/2 (converted)) of the same molecule?
**A.** 42.1 ± 28.2 days

**Q.** What about the half-life ([1]; male, monkey, in vivo, 15 mg/kg, 15 mg/kg SC, after second dose, PTM, read-out: mean terminal half-life (t1/2) (converted)) of the same molecule?
**A.** 42 days

**Q.** What about the half-life ([1]; male, monkey, in vivo, 25 mg/kg, 25 mg/kg single SC dose on Study Day 0, PTM, N = 3, mean ± SD, read-out: t1/2 (converted)) of the same molecule?
**A.** 38.5 ± 14.2 days

**Q.** What about the half-life ([1]; male, monkey, in vivo, 50 mg/kg, 50 mg/kg SC on Study Day 0 and 42, PTM, N = 3, mean ± SD, read-out: t1/2 (converted)) of the same molecule?
**A.** 48.3 ± 5.83 days

**Q.** What about the half-life ([1]; male, monkey, in vivo, 50 mg/kg, 50 mg/kg SC, after second dose, PTM, read-out: mean terminal half-life (t1/2) (converted)) of the same molecule?
**A.** 48 days

**Q.** And the Cmax ([1]; male, monkey, plasma, Cmax (mean peak plasma concentration after second dose), 15 mg/kg SC on Study Day 0 and 42, PTM, N = 3, mean ± SD, read-out: Cmax (mean peak plasma concentration after second dose))?
**A.** 68 nM

**Q.** What about the Cmax ([1]; male, monkey, plasma, Cmax (mean peak plasma concentration after second dose), 50 mg/kg SC on Study Day 0 and 42, PTM, N = 3, mean ± SD, read-out: Cmax (mean peak plasma concentration after second dose)) of the same molecule?
**A.** 295 ± 58 nM

**Q.** And the Cmax ([1]; male, monkey, plasma, Cmax, 25 mg/kg single SC dose on Study Day 0, PTM, N = 3, mean ± SD, read-out: Cmax)?
**A.** 47 ± 5.7 nM

**Q.** And the half-life ([1]; male, pigtail macaque, in vivo, 25 mg/kg, 25 mg/kg single SC dose, PTM, read-out: mean t1/2 (converted))?
**A.** 38.5 days

**Q.** What about the concentration at 30 days ([1]; male, pigtail macaque, in vivo, 25 mg/kg single SC dose, 30 days after dosing, range of 3 animals, read-out: plasma LEN concentrations at the time of stHIV-A19 challenge) of the same molecule?
**A.** 8.6 to 51.2 nM

**Q.** What about the “projected reduction of antiviral potency in 100% PTM plasma vs complete cell culture media (protein shift)” value [2] of the same molecule?
**A.** 9.7 fold
